Reference: article PMC12062876, “Efficient constitution of a library of rotenoid analogs active against Trypanosoma cruzi from a digitalized plant extract collection” (RSC Advances, 2025)
Like-named read-outs stand apart in the source and are kept apart here.

Experiments:
T. cruzi amastigotes = assay: Activity against intracellular T. cruzi amastigotes; type: cell-based, Trypanosoma cruzi; conditions: for Selectivity index: SI = IC50 cytotoxicity/IC50 against T. cruzi; for IC50: Trypanosoma cruzi, read-out: IC50 T. cruzi amastigotes; for activity against T. cruzi (in words): intracellular amastigotes
Text: The bioactivity of isolated compounds against intracellular T. cruzi amastigotes grown in rat L6 […] is presented in Table 1. […] Rotenone and deguelin are known to be strong mitochondrial complex I (also known as NADH:ubiquinone oxidoreductase) inhibitors,[43–45] while different activities between closely related rotenoids (rotenone, 5′-α-epirotenone, and 5′-β-epirotenone) has already been shown. […] The variation in activity observed on our rapidly generated series of structural analogs points in the same direction. As shown in Fig. 3 and Table 1, the cyclic and bent form of the rotenoid at the B/C ring junction is essential for activity, since compounds 40 and 41 were not active.
The pure compounds activity was assessed against T. cruzi amastigotes as described in ref. [27].

[1] = Cytotoxicity assay: L-6 cells; type: cell-based; conditions: rat skeletal myoblast (L6 cells); means of two independent assays
Method: The pure compounds cytotoxicity was assessed against L6 cells as described in ref. [27].

[2] = intracellular amastigotes grown in rat L6 cells, means of two independent assays

COc1cc2c(cc1OC)C1C(CO2)Oc2c(ccc3occc23)C1OC(C)=O (stereo not drawn) [Compound 34, 12-deoxo-12α-acetoxyelliptone]
Selectivity index (T. cruzi amastigotes): 3.8 | IC50 (T. cruzi amastigotes; [2]): 27.1 µM | IC50 [1]: 104 µM

CC1(C)C=Cc2c(ccc3c(=O)c(-c4cc(O)c5c(c4)OCO5)coc23)O1 [Compound 40, norisojamaicin]
Selectivity index (T. cruzi amastigotes): 5.7 | IC50 (T. cruzi amastigotes; [2]): 21.8 µM | activity against T. cruzi (in words) (T. cruzi amastigotes): not active | IC50 [1]: 123 µM

COc1c(-c2coc3cc4c(cc3c2=O)C=CC(C)(C)O4)ccc2c1C=CC(C)(C)O2 [Compound 23, munetone]
Selectivity index (T. cruzi amastigotes): 5.3 | IC50 (T. cruzi amastigotes; [2]): 7.35 µM | IC50 [1]: 38.8 µM

COc1cc(O)ccc1C1COc2cc(O)ccc2C1 (stereo not shown) [Compound 4, 7,4′-dihydroxy-2′-methoxyisoflavan]
Selectivity index (T. cruzi amastigotes): 1.4 | IC50 (T. cruzi amastigotes; [2]): 247 µM | IC50 [1]: 358 µM

CC(=O)OC1C2c3c(ccc4c3OC(c3ccccc3)CC4=O)OC2OC1(C)C (single isomer, unassigned; (-)) [Compound 11, (−)-purpurin]
Selectivity index (T. cruzi amastigotes): 3.5 | IC50 (T. cruzi amastigotes; [2]): 1.78 µM | IC50 [1]: 6.25 µM

COc1cc2c(cc1OC)[C@]1(O)[C@H](OC(C)=O)c3ccc4occc4c3O[C@@H]1CO2 (relative stereo) [Compound 33, 12-deoxo-12α-acetoxy-12a-β-hydroxyelliptone]
Selectivity index (T. cruzi amastigotes): 1.5 | IC50 (T. cruzi amastigotes; [2]): 65.1 µM | IC50 [1]: 98.2 µM

COc1c2c(cc3ccoc13)C(=O)[C@@]1(O)c3cc4c(cc3OC[C@H]1O2)OCO4 (relative stereo) [Compound 29, 12a-hydroxypachyrhizone]
Selectivity index (T. cruzi amastigotes): 1.3 | IC50 (T. cruzi amastigotes; [2]): 93.2 µM | IC50 [1]: 125 µM

CC1(C)C=Cc2c(ccc(-c3coc4cc(O)ccc4c3=O)c2O)O1 [Compound 20, glabrone]
Selectivity index (T. cruzi amastigotes): 1.2 | IC50 (T. cruzi amastigotes; [2]): 149 µM | IC50 [1]: 186 µM

COc1cc([C@@H]2c3cc4c(cc3[C@H](O)[C@H]3COC(=O)[C@H]23)OCO4)cc(OC)c1OC [Podophyllotoxin, reference compound]
IC50 [1]: 0.02 µM

COc1cc(O)ccc1C1COc2cc3c(cc2C1)CC(C(C)(C)O)O3 (stereo not shown) [Compound 6, 4-(2-(2-hydroxypropan-2-yl)-2,3,6,7-tetrahydro-5H-furo[3,2-g]chromen-6-yl)-3-methoxyphenol]
Selectivity index (T. cruzi amastigotes): 0.8 | IC50 (T. cruzi amastigotes; [2]): 203 µM | IC50 [1]: 154 µM

COc1cc2c(cc1OC)[C@@H]1C(=O)c3cc4ccoc4cc3O[C@@H]1CO2 (relative stereo) [Compound 32, erosone]
Selectivity index (T. cruzi amastigotes): 2.9 | IC50 (T. cruzi amastigotes; [2]): 39.3 µM | IC50 [1]: 115 µM

COc1ccc(-c2coc3c4c(cc(O)c3c2=O)OC(C)(C)C=C4)cc1O [Compound 41, 3′-hydroxy-4′-O-metyhlerrone]
Selectivity index (T. cruzi amastigotes): 6.9 | IC50 (T. cruzi amastigotes; [2]): 8.04 µM | activity against T. cruzi (in words) (T. cruzi amastigotes): not active | IC50 [1]: 55.7 µM

CC(C)(O)C(OC(=O)C=Cc1ccccc1)C1COc2ccc3c(c21)OC(c1ccccc1)CC3=O (stereo not shown) [Compound 14, 2-hydroxy-2-methyl-1-(4-oxo-2-phenyl-3,4,8,9-tetrahydro-2H-furo[2,3-h]chromen-9-yl)propyl cinnamate]
Selectivity index (T. cruzi amastigotes): 5.1 | IC50 (T. cruzi amastigotes; [2]): 16 µM | IC50 [1]: 81.6 µM

C=C(C)[C@H]1Cc2cc3c(cc2O1)oc(=O)c1c2cc4c(cc2oc31)OCO4 [Compound 19, tephcalostan]
Selectivity index (T. cruzi amastigotes): 1.8 | IC50 (T. cruzi amastigotes; [2]): 65.6 µM | IC50 [1]: 119 µM

COc1cc2c(cc1OC)[C@]1(O)C(=O)c3ccc4c(c3O[C@@H]1CO2)C=CC(C)(C)O4 [Compound 38, tephrosin]
Selectivity index (T. cruzi amastigotes): 1937.0 | IC50 (T. cruzi amastigotes; L6, in Rattus norvegicus): 0.04 µM | IC50 [1]: 72.4 µM

Oc1ccc2c(c1)OC[C@H]1c3cc4c(cc3O[C@@H]21)OCO4 [Compound 16, maackiain]
Selectivity index (T. cruzi amastigotes): 1.3 | IC50 (T. cruzi amastigotes; [2]): 119 µM | IC50 [1]: 156 µM

C=C(C)[C@H]1Cc2cc3c(cc2O1)OC[C@H]1c2cc4c(cc2O[C@@H]31)OCO4 [Compound 17, emoroidocarpan]
Selectivity index (T. cruzi amastigotes): 1.8 | IC50 (T. cruzi amastigotes; [2]): 47.8 µM | IC50 [1]: 84.8 µM

C=C(C)/C=C/c1c(OC)ccc2c1OC(c1ccccc1)CC2=O (stereo not shown) [Compound 9, dehydroisoderricin]
Selectivity index (T. cruzi amastigotes): 1.4 | IC50 (T. cruzi amastigotes; [2]): 66.2 µM | IC50 [1]: 95.4 µM

COc1cc2c(cc1OC)[C@]1(O)C(=O)c3cc4ccoc4cc3O[C@@H]1CO2 (relative stereo) [Compound 31, 12a-hydroxyerosone]
Selectivity index (T. cruzi amastigotes): 5.7 | IC50 (T. cruzi amastigotes; [2]): 19.7 µM | IC50 [1]: 113 µM

COc1ccc(-c2coc3cc(O)ccc3c2=O)cc1 [Compound 22, formononetin]
Selectivity index (T. cruzi amastigotes): 1.0 | IC50 (T. cruzi amastigotes; [2]): 217 µM | IC50 [1]: 224 µM

O=C(Cn1ccnc1[N+](=O)[O-])NCc1ccccc1 [Benznidazole, reference compound]
IC50 (T. cruzi amastigotes; [2]): 3.14 µM

CC(C)=CCc1cc2c(cc1O)OC[C@@H](c1ccc(O)cc1O)C2 [Compound 3, manuifolin H]
Selectivity index (T. cruzi amastigotes): 3.7 | IC50 (T. cruzi amastigotes; [2]): 28.3 µM | IC50 [1]: 106 µM

C=C(CO)C1Cc2cc3c(cc2O1)OCC1c2cc4c(cc2OC31)OCO4 (stereo not drawn) [Compound 18, (2′R)-4′-hydroxyemoroidocarpan]
Selectivity index (T. cruzi amastigotes): 2.9 | IC50 (T. cruzi amastigotes; [2]): 40.1 µM | IC50 [1]: 118 µM

COc1cc2c(cc1-c1coc3cc4occc4cc3c1=O)OCO2 [Compound 28, dehydroneotenone]
Selectivity index (T. cruzi amastigotes): 5.1 | IC50 (T. cruzi amastigotes; [2]): 3.59 µM | IC50 [1]: 18.3 µM

COc1cc2c(cc1OC)[C@]1(O)C(=O)c3ccc4occc4c3O[C@@H]1CO2 [Compound 36, 12a-hydroxyelliptone]
Selectivity index (T. cruzi amastigotes): 18.5 | IC50 (T. cruzi amastigotes; [2]): 5.42 µM | IC50 [1]: 100 µM

COc1cc2occ(-c3ccc4c(c3)OCO4)c(=O)c2cc1O [Compound 24, acicerone]
Selectivity index (T. cruzi amastigotes): 2.1 | IC50 (T. cruzi amastigotes; [2]): 86.8 µM | IC50 [1]: 186 µM

COc1cc2c(cc1C1COc3cc(O)ccc3C1)OCO2 (stereo not shown) [Compound 5, astraciceran]
Selectivity index (T. cruzi amastigotes): 0.8 | IC50 (T. cruzi amastigotes; [2]): 94.1 µM | IC50 [1]: 75.4 µM

CC1(C)C=Cc2c(ccc(-c3coc4cc(O)c(O)cc4c3=O)c2O)O1 [Compound 21, 5′,6,7-trihydroxy-2′,2′-dimethyl-2′H,4H-[3,6′-bichromen]-4-one]
Selectivity index (T. cruzi amastigotes): 1.4 | IC50 (T. cruzi amastigotes; [2]): 56.8 µM | IC50 [1]: 76.6 µM

COc1cc2c(cc1OC)[C@@H]1C(=O)c3ccc4occc4c3O[C@@H]1CO2 [Compound 35, elliptone]
Selectivity index (T. cruzi amastigotes): 5.4 | IC50 (T. cruzi amastigotes; [2]): 18.2 µM | IC50 [1]: 99 µM

CC(C)=CCc1c(O)ccc(C(=O)/C=C/c2ccc(O)cc2)c1O [Compound 7, isobavachalcone]
Selectivity index (T. cruzi amastigotes): 1.7 | IC50 (T. cruzi amastigotes; [2]): 60.1 µM | IC50 [1]: 104 µM

CC(=O)OC(C1COc2ccc3c(c21)OC(c1ccccc1)CC3=O)C(C)(C)O (stereo not shown) [Compound 13, 2-hydroxy-2-methyl-1-(4-oxo-2-phenyl-3,4,8,9-tetrahydro-2H-furo[2,3-h]chromen-9-yl)propyl acetate]
Selectivity index (T. cruzi amastigotes): 1.1 | IC50 (T. cruzi amastigotes; [2]): 123 µM | IC50 [1]: 131 µM

COc1c(C(=O)/C=C(\O)c2ccccc2)ccc2occc12 [Compound 8, pongamol]
Selectivity index (T. cruzi amastigotes): 2.7 | IC50 (T. cruzi amastigotes; [2]): 26.8 µM | IC50 [1]: 73.6 µM

CC(C)=CCc1cc2c(cc1O)OCC(c1ccc(O)cc1)C2O (stereo not shown) [Compound 2, bavaisoflavanol]
Selectivity index (T. cruzi amastigotes): 1.1 | IC50 (T. cruzi amastigotes; [2]): 43.1 µM | IC50 [1]: 49.5 µM
